# Results from PubChem BioAssay (NCI).
# “And” between values parts separate entries of the source, which are not always exact repeats. Equal entries are not always repeated.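 Tested at 5 concentrations; 48 h exposure; 96-well plates; endpoints linearly interpolated, else capped at highest concentration. GI50 is the concentration that inhibits growth by half. TGI: total growth inhibition.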
# What was measured:
# Test in all cases: NCI anticancer screen, dose series, 48 h
# [1] = test system: 786-0 renal
# [2] = test system: A498 renal
# [3] = test system: A549 NSCLC
# [4] = test system: ACHN renal
# [5] = test system: DU-145 prostate
# [6] = test system: HS 578T breast
# [7] = test system: MOLT-4 leukemia
# [8] = test system: NCI/ADR-RES ovarian
# [9] = test system: SF-295 CNS
# [10] = test system: SN12C renal
Structure (SMILES),GI50 [1],GI50 [2],TGI [2],GI50 [3],GI50 [4],GI50 [5],TGI [5],GI50 [6],TGI [6] [µM],GI50 [7],GI50 [8] [µM],TGI [8],GI50 [9],TGI [9],GI50 [10],TGI [1] [µM],TGI [3] [µM],TGI [4] [µM],TGI [7] [µM],TGI [10] [µM]
COc1ccc(C2CC(c3ccc4ccccc4c3)=NN2c2nc(O)c(C3=c4cc(Cl)ccc4=NC3=O)s2)cc1 (configuration not stated),0.0231 µM and < 0.005 µM,0.0166 µM and < 0.005 µM,0.0419 µM and < 0.005 µM,0.0251 µM and < 0.005 µM,0.025 µM and < 0.005 µM,0.0331 µM and < 0.005 µM,0.147 µM and 0.2 µM,0.0283 µM,0.0973,0.0329 µM and < 0.005 µM,0.0923,50 µM,0.0197 µM and < 0.005 µM,0.0491 µM and < 0.005 µM,0.0264 µM and < 0.005 µM,,,,,
CCOC1Oc2ccccc2C(=O)/C1=C\Nc1ccc(C(=O)O)c(O)c1 (configuration not stated),30.1 µM,30.6 µM,73.7 µM,> 100 µM,18.3 µM,34.1 µM,> 100 µM,35 µM,90,> 100 µM,20.5,62 µM,21.9 µM,55.4 µM,16.5 µM,> 100,> 100,44.3,> 100,36.7
CN(C)c1ccc(/C=N/n2c(CCCCc3n[nH]c(=S)n3/N=C/c3ccc(N(C)C)cc3)n[nH]c2=S)cc1,89.3 µM,> 100 µM,> 100 µM,> 100 µM,> 100 µM,> 100 µM,> 100 µM,73.8 µM,> 100,> 100 µM,> 100,> 100 µM,> 100 µM,> 100 µM,> 100 µM,> 100,> 100,> 100,> 100,> 100
CC[C@H](C)[C@H](NC(=O)[C@H]1CCCCN1C)C(=O)N(C)[C@H](C[C@@H](OC(C)=O)c1nc(C(=O)NC23C4C5C2C2C3C4C52C(=O)OC)cs1)C(C)C (some centres not stated),0.00359 µM and 0.0025 µM,0.0139 µM and 0.00317 µM,0.133 µM,0.00879 µM and 0.0025 µM,0.0189 µM and 0.0025 µM,0.00113 µM and 0.0025 µM,0.031 µM,0.000754 µM and 0.0025 µM,> 25,0.00485 µM and 0.0025 µM,0.0676,,0.00253 µM and 0.0025 µM,0.0944 µM and 0.282 µM,0.00199 µM and 0.0025 µM,> 25,> 25,4.03,> 25,9.33
CCOP(=O)(OCC)C(NC(c1ccccc1)c1ccccc1)c1ccsc1 (configuration not stated),17.2 µM,30.8 µM,49.6 µM,24.7 µM,,19.1 µM,35.5 µM,29.7 µM,66.3,25.4 µM,14.4,29.7 µM,18.4 µM,36.9 µM,16.7 µM,31.4,76.9,,> 100,30.3
CN(CCCCCCCCNc1ccnc2ccccc12)Cc1ccc(-c2ccc(-c3ccc(C#N)cc3)s2)cc1,1.4 µM,1.22 µM,2.6 µM,1.01 µM,1.28 µM,1.04 µM,2.38 µM,1.75 µM,3.86,0.368 µM,1.2,3.23 µM,0.501 µM,1.26 µM,1.37 µM,3.25,2.94,2.55,2.51,3
O=C(CS(=O)c1nc2ccccc2nc1-c1ccccc1)Nc1ccc(Cl)cc1 (configuration not stated),26.5 µM,19 µM,43 µM,32.3 µM,21.4 µM,25.7 µM,> 100 µM,,6.88,24.4 µM,26.4,81.2 µM,15.7 µM,48.7 µM,18.2 µM,71.7,> 100,51.1,69.3,33.7
COc1ccc2[nH]cc(Cc3c[nH]c4ccc(OC)cc34)c2c1,38.9 µM,3.32 µM,14.5 µM,19.1 µM,20 µM,15.2 µM,34 µM,15.6 µM,49.6,37.4 µM,20.4,42.1 µM,16.6 µM,34.5 µM,17.5 µM,> 100,46.9,43.9,> 100,31.3
C=C1C(=O)O[C@H]2[C@H]1CC/C(CNC(=O)C(C)c1ccc(CC(C)C)cc1)=C\CC[C@@]1(C)O[C@@H]21 (some centres not stated),1.76 µM,2.22 µM,8.38 µM,2.37 µM,1.45 µM,1.49 µM,2.85 µM,2.24 µM,7.46,2.39 µM,2.07,5.47 µM,3.45 µM,14.7 µM,1.63 µM,3.36,6.72,2.76,9.66,3.26
CSc1nc(SC)c2c(C)c(Br)[nH]c2n1,,,> 100 µM,,,,> 100 µM,,> 100,,,> 100 µM,,> 100 µM,,> 100,> 100,> 100,> 100,> 100
O=C1NC(c2cccc3ccccc23)Nc2ccccc21 (configuration not stated),0.0254 µM,,0.0848 µM,0.0582 µM,0.0383 µM,0.046 µM,8.11 µM,,92.2,0.0443 µM,,0.0707 µM and 0.0715 µM,0.0592 µM,0.894 µM,0.0198 µM,> 100,> 100,> 54.7,,> 100
CN(C)C[C@@H]1CCn2cc(c3ccccc32)C2=C(C(=O)NC2=O)c2cn(c3ccccc23)CCO1,1.78 µM,1.13 µM,4.54 µM,2.72 µM,2.04 µM,2.75 µM,> 10 µM,1.76 µM,8.88,1.95 µM,2.58,> 10 µM,3.3 µM,> 10 µM,0.679 µM,3.93,> 10,> 10,5.59,5.85
CC(C)c1ccc(C(O)(C(=O)O)c2ccc(C(C)C)cc2)cc1,,,> 100 µM,,,,> 100 µM,,> 100,,,> 100 µM,,95.5 µM,,> 100,> 100,> 100,> 100,> 100
